Among the data in article PMC9689838, “Screening and Identification of Novel Soluble Epoxide Hydrolase Inhibitors from Corn Gluten Peptides” (Foods, 2022) are IC50 and inhibition values, retold here.

Where two headings read alike, the source gives them in different places. Where a SMILES comes first, the peptide text is derived from it.

One test concerns sEH. The settings on record: read-out: IC50, sEH inhibitory activity, cited from earlier work.
Test [1] concerns the target T1, Human soluble epoxide hydrolase (sEH) (Homo sapiens, UniProt P34913).
T1 construct: purchased Cayman Chemical (Ann Arbor, MI, USA)
T1 sequence (P34913 1-555): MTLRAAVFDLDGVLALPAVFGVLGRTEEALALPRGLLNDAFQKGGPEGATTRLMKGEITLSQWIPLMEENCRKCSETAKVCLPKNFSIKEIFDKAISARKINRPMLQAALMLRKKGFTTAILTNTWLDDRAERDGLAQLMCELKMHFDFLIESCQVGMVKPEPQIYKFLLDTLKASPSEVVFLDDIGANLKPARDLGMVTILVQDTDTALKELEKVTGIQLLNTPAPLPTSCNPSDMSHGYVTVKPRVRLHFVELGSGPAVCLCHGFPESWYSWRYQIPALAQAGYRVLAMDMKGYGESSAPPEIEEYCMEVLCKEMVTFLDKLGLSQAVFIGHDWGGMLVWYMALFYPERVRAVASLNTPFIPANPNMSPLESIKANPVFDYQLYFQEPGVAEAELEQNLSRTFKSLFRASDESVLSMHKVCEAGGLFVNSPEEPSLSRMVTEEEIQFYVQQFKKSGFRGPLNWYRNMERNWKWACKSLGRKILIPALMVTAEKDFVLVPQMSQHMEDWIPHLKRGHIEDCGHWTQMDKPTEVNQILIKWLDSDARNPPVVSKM
In words: sEH inhibitory activity assay with fluorescent substrate PHOME. The class given is biochemical. To be noted: 10 µM PHOME, 40 min, mean ± SD n = 3; for inhibition at 100 µM: peptide 100 µM final, 62.5 ng/mL sEH, 37 °C; for IC50: synthesized peptides 20-100 µM. The method, then:
The effects of the concentrations of the enzyme, substrate, and the hydrolysis time of sEH on PHOME were determined according to the methods reported previously. […] After incubating at 37 °C for 5 to 50 min, the fluorescence intensity was measured at an emission wavelength of 465 nm and an excitation wavelength of 330 nm. Bis-Tris-HCl instead of PHOME was used as the blank control. The reaction rate of the system was calculated as follows:(1) The reaction rate (RFU/min)=St - Ct/t where St (RFU) and Ct (RFU) represent the fluorescence intensity of the sample and blank group at t min, respectively. The t (min) represents the reaction time.
The sEH inhibitory activities of peptides were determined as above described. Briefly, 130 µL of 62.5 ng/mL human sEH solution (final concentrations, dissolved in 25 mM bis-Tris-HCl containing 0.1% BSA, pH 7.0) and 20 µL of peptides (final concentrations: synthesized peptides, 20, 40, 60, 80, and 100 µM; corn gluten peptides, 1, 2, 3, 4, and 5 mg/mL, respectively) were added to 96-well plate followed by adding 50 µL of 10 µM PHOME solution (final concentration, dissolved in 25 mM bis-Tris-HCl containing 0.1% BSA, pH 7.0). After incubating at 37 °C for 5 to 40 min, the fluorescence intensity of the mixture at an emission wavelength of 465 nm and an excitation wavelength of 330 nm was determined. […] The sEH inhibitory activity was calculated as follows:(2) sEH inhibitory activity (%)=C40 - S40/C40 - C0×100% where C40 (RFU) and C0 (RFU) represented the fluorescence intensity of the blank control group at 40 and 0 min, respectively. S40 (RFU) represented the fluorescence intensity of the sample group at 40 min.

[2] abbreviates: isolated from Capsicum chinense.

As for `C[C@@H]1CC[C@]2(C(=O)O)CC[C@]3(C)C(=CC[C@@H]4[C@@]5(C)CC(=O)[C@H](O)C(C)(C)[C@@H]5CC[C@]43C)[C@@H]2[C@]1(C)O` [2-oxopomolic acid], the IC50 – broadly, the concentration needed to halve the response being measured – with sEH is 11.4 ± 2.7 µM. `N[C@@H](Cc1c[nH]c2ccccc12)C(=O)N[C@@H](CCC(=O)O)C(=O)N[C@@H](Cc1ccc(O)cc1)C(=O)O` [WEY] (H-Trp-Glu-Tyr-OH): in test [1], the inhibition (commonly the percentage by which the read-out fell short of the control) at 100 µM is 70 ± 6.25% and the IC50 turned out to be 55.4 ± 1.55 µM. The matching figures for `N[C@@H](Cc1c[nH]c2ccccc12)C(=O)N[C@@H](Cc1c[nH]c2ccccc12)C(=O)N[C@@H](Cc1ccc(O)cc1)C(=O)O` [WWY] (H-Trp-Trp-Tyr-OH): 55.1 ± 2.38% and 68.8 ± 7.72 µM.

Consider `N[C@@H](Cc1c[nH]c2ccccc12)C(=O)N[C@@H](Cc1ccc(O)cc1)C(=O)N[C@@H](Cc1c[nH]c2ccccc12)C(=O)O` [WYW] (H-Trp-Tyr-Trp-OH), for which, in test [1], 100 µM produced 60.3 ± 5.6% inhibition and half-maximal inhibition (IC50) required 70.7 ± 9.9 µM. The matching figures for `N[C@@H](Cc1ccc(O)cc1)C(=O)N[C@@H](Cc1ccccc1)C(=O)N[C@@H](Cc1c[nH]c2ccccc12)C(=O)O` [YFW] (H-Tyr-Phe-Trp-OH): 57.4 ± 7.62% and 96 ± 7.5 µM. The matching figures for `N[C@@H](Cc1ccc(O)cc1)C(=O)N[C@@H](Cc1ccccc1)C(=O)N[C@@H](Cc1ccc(O)cc1)C(=O)O` [YFY] (H-Tyr-Phe-Tyr-OH): 53 ± 3.09% and 94.1 ± 12.9 µM. Turning to `COc1cc(CNC(=O)CCCC/C=C/C(C)C)ccc1O` [capsaicin], the 50% inhibitory concentration (IC50) in the test with sEH (setting [2]) was 5.6 ± 1.2 µM.

`C[C@H]1[C@H](C)CC[C@]2(C(=O)O)CC[C@]3(C)C(=CC[C@@H]4[C@@]5(C)C[C@@H](O)[C@H](O)C(C)(C)[C@@H]5CC[C@]43C)[C@H]12` [corosolic acid]: the IC50 in the test on sEH is 51.3 ± 4.9 µM. On to `COc1cc(CNC(=O)CCCCCCC(C)C)ccc1O` [dihydrocapsaicin], for which the IC50 in the test with sEH (setting [2]) was 7.3 ± 0.7 µM. As to `CC(C)CNC(=O)/C=C/CCc1ccc2c(c1)OCO2` [dihydropiperlonguminine], the IC50 in the test with sEH (from Scutellaria baicalensis) is 7.83 ± 0.52 µM.

As to `CC(C)C(=O)Nc1ccc([N+](=O)[O-])c(C(F)(F)F)c1` [flutamide], the IC50 in the test with sEH (from Scutellaria baicalensis) is 6.32 ± 0.31 µM.

In the case of `O=c1c(O)c(-c2ccc(O)cc2)oc2cc(O)cc(O)c12` [kaempferol], the IC50 in the test with sEH was 31.3 ± 2.6 µM. For the molecule `CCCCC/C=C/C=C/C(=O)NCC(C)C` [pellitorine], the IC50 with sEH (from Scutellaria baicalensis) is 93.7 ± 4.52 µM. With `CC(C)CNC(=O)/C=C/C=C/c1ccc2c(c1)OCO2` [piperlonguminine], the IC50 with sEH (from Scutellaria baicalensis) was 6.06 ± 0.12 µM. On to `O=c1c(O[C@H]2OC[C@@H](O)[C@@H](O)[C@@H]2O)c(-c2ccc(O)c(O)c2)oc2cc(O)cc(O)c12` [quercetin-3-O-arabinoside], for which the half-maximal inhibitory concentration (IC50) in the test with sEH was 39.3 ± 3.4 µM. For `O=c1c(O)c(-c2ccc(O)c(O)c2)oc2cc(O)cc(O)c12` [quercetin], the half-inhibitory concentration (IC50) in the test on sEH is 22.5 ± 0.9 µM. Turning to `C[C@H]1[C@H](C)CC[C@]2(C(=O)O)CC[C@]3(C)C(=CC[C@@H]4[C@@]5(C)CC[C@H](O)C(C)(C)[C@@H]5CC[C@]43C)[C@H]12` [ursolic acid], in the test on sEH, the concentration for half-maximal inhibition (IC50) was 84.5 ± 9.5 µM.
